The results in this text go back to ChEMBL document CHEMBL1201862, “PubChem BioAssay data set” (2004).

Test systems include 786-0; EKVX; HCT-116; K562; MDA-MB-435; MDA-N; OVCAR-3; OVCAR-4; OVCAR-5; PC-3; RXF 393; SF-295; SF-539; SK-MEL-2; SNB-75; UACC-257; UACC-62; UO-31; MOLT-4; HCC 2998.
Holding throughout (experiment): growth of human tumour cells (NCI), 48 h

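Step 1: Grow cells in 96-well plates. Step 2: Expose to compound for 48 hours at 5 concentrations. Step 3: Interpolate endpoints linearly; if unreached, use highest concentration. GI50 = concentration required for 50% inhibition of growth.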 Activity calls are given as the source filed them. No stated cut-off is given here; in the data, active = GI50 up to about 1.1 µM and inactive = higher.

For the compound `COc1ccc(NCc2c(O)ccc3ccccc23)cc1`, the GI50 in the test on 786-0 is 16.4 µM (inactive); in the test on EKVX, 18.9 µM (inactive); with HCT-116, 33.8 µM (inactive); with K562, 10.7 µM (inactive); in the test with MDA-MB-435 it was 42.9 µM (inactive); in the test on MDA-N, 30.1 µM (inactive). Besides, the GI50 is 27.2 µM (inactive) in the test with OVCAR-3; 43.1 µM (inactive) with OVCAR-4; 11.3 µM (inactive) in the test with OVCAR-5; 17.1 µM (inactive) with PC-3; 16.5 µM (inactive) with RXF 393; 43 µM (inactive) in the test with SF-295. Moreover, the GI50 is 13.2 µM (inactive) in the test with SF-539; 64.1 µM (inactive) with SK-MEL-2; > 100 µM (inactive) in the test with SNB-75; 18.4 µM (inactive) with UACC-257; 8.09 µM (inactive) in the test on UACC-62; 11.3 µM (inactive) with UO-31.
For the compound `NCCC1(N)CCNCC1`, the GI50 with 786-0, in the test with EKVX, with HCT-116, in the test on K562, with MDA-MB-435 and with MDA-N was > 100 µM (inactive) in each case. For the same compound, the GI50 in the test with MOLT-4, in the test with OVCAR-4, with OVCAR-5, with PC-3, in the test with RXF 393 and in the test with SF-295 was > 100 µM (inactive) throughout. Further, the GI50 in the test on SF-539 is > 100 µM (inactive); in the test on SK-MEL-2, > 100 µM (inactive); in the test on SNB-75, 13.7 µM (inactive); in the test with UACC-257 it was > 100 µM (inactive); in the test on UACC-62 it was > 100 µM (inactive); in the test with UO-31 it was > 100 µM (inactive).
As for `C1CSCCCSCCCSCCCSCCCSCCCSCCCSCCCSC1`, the GI50 in the test with 786-0, in the test with EKVX, with HCC 2998, in the test with HCT-116, with K562 and with MDA-MB-435 was > 100 µM (inactive) in each case. Also, the GI50 in the test with MDA-N, with MOLT-4, in the test on OVCAR-3, with OVCAR-4, with OVCAR-5 and in the test with PC-3 was > 100 µM (inactive) in each case. Further, the GI50 in the test with RXF 393, in the test on SF-295, in the test with SF-539, in the test with SK-MEL-2, in the test on UACC-257 and with UO-31 was > 100 µM (inactive) in each case.
On to `CC1=C(C(N)=O)C(c2ccncc2)C(C#N)=C2SCC(=O)N12` (stereo not drawn), for which the GI50 with 786-0, in the test with EKVX, in the test with HCT-116, with K562, with MDA-MB-435 and with MDA-N was > 100 µM (inactive) in each case. In addition, the GI50 in the test on MOLT-4, in the test on OVCAR-3, with OVCAR-4, in the test on OVCAR-5, in the test with PC-3 and in the test with RXF 393 was > 100 µM (inactive) each time. The GI50 in the test with SF-295, in the test on SF-539, with SK-MEL-2, with SNB-75, with UACC-257 and with UACC-62 was > 100 µM (inactive) throughout. Also, the GI50 in the test with UO-31 was > 100 µM (inactive).
For the compound `CSc1cc(-c2cccs2)sc1-c1cc(SC)c(-c2sc(-c3sc(-c4cccs4)cc3SC)cc2SC)s1`, the GI50 in the test on 786-0, with EKVX, with HCC 2998, with HCT-116, with K562 and in the test with MDA-MB-435 was > 100 µM (inactive) each time. Moreover, the GI50 was > 100 µM (inactive) with MDA-N; > 100 µM (inactive) in the test with MOLT-4; > 100 µM (inactive) with OVCAR-3; > 100 µM (inactive) in the test with OVCAR-4; 30.6 µM (inactive) with OVCAR-5; > 100 µM (inactive) in the test on PC-3. Moreover, the GI50 in the test on RXF 393, in the test with SF-295, in the test with SF-539, in the test on SK-MEL-2, in the test on UACC-257 and with UACC-62 was > 100 µM (inactive) in each case.
Consider `CSc1ncnc2c1ncn2CCC(=O)O`, for which the GI50 in the test with 786-0, with EKVX, with HCT-116, in the test on K562, with MDA-MB-435 and in the test with MDA-N was > 100 µM (inactive) each time. Also, the GI50 in the test with MOLT-4, in the test on OVCAR-3, in the test with OVCAR-4, in the test on OVCAR-5, in the test on PC-3 and in the test with RXF 393 was > 100 µM (inactive) in each case. The GI50 in the test on SF-295, with SF-539, with SNB-75, in the test with UACC-257, with UACC-62 and in the test on UO-31 was > 100 µM (inactive) in each case.
In the case of `C=C1c2ccccc2C(=O)c2c1c1c(C(=O)OC)c(O)ccc1n2Cc1ccccc1`, the GI50 with 786-0 was 0.197 µM (active); in the test on EKVX, 0.9 µM (active); in the test on HCT-116 it was 0.557 µM (active); with K562, 0.323 µM (active); in the test with MDA-MB-435, 0.255 µM (active); in the test with MDA-N it was 0.32 µM (active). For the same compound, the GI50 was 0.219 µM (active) in the test on MOLT-4; 0.151 µM (active) in the test with OVCAR-3; 0.558 µM (active) in the test with OVCAR-4; 1.1 µM (active) with OVCAR-5; 0.437 µM (active) in the test with PC-3; 0.267 µM (active) in the test on RXF 393. The GI50 is 0.574 µM (active) in the test with SF-295; 0.228 µM (active) in the test with SF-539; 0.817 µM (active) in the test on SK-MEL-2; 0.264 µM (active) in the test on SNB-75; 1.71 µM (inactive) in the test with UACC-257; 0.284 µM (active) in the test with UACC-62. Also, the GI50 in the test with UO-31 was 0.512 µM (active).
With `CC(C)=CCC/C(C)=C/CCC(C(=O)COCc1ccccc1)P1(=O)OC(C)(C)CN1C(C)(C)C` (stereo not drawn), the GI50 with 786-0 is 48.3 µM (inactive); with EKVX, > 100 µM (inactive); in the test with HCT-116, 33.1 µM (inactive); in the test with K562, 31.9 µM (inactive); in the test on MDA-MB-435 it was 51.4 µM (inactive); in the test on MDA-N, > 100 µM (inactive). Also, the GI50 is 15.9 µM (inactive) in the test on MOLT-4; 37.6 µM (inactive) with OVCAR-3; 23.9 µM (inactive) with OVCAR-4; > 100 µM (inactive) in the test with OVCAR-5; 39.3 µM (inactive) with PC-3; 87.5 µM (inactive) with RXF 393. Also, the GI50 in the test on SF-295 was 46.6 µM (inactive); with SF-539, > 100 µM (inactive); with SK-MEL-2, 35.5 µM (inactive); in the test with SNB-75, 28.9 µM (inactive); in the test on UACC-257 it was 84.1 µM (inactive); with UACC-62 it was > 100 µM (inactive). For the same compound, the GI50 in the test with UO-31 is 50.4 µM (inactive).
As to `O=C(/C=C1\Sc2ccccc2N=C1CC(=O)c1ccccc1)c1ccccc1`, the GI50 was 3.51 µM (inactive) with 786-0; 6.17 µM (inactive) in the test on EKVX; 10.1 µM (inactive) in the test with HCC 2998; 4.9 µM (inactive) with HCT-116; 3.79 µM (inactive) in the test with K562; 6.52 µM (inactive) in the test with MDA-MB-435. The GI50 is 8.22 µM (inactive) in the test with MDA-N; 1.79 µM (inactive) in the test on MOLT-4; 10.7 µM (inactive) with OVCAR-3; 4.99 µM (inactive) in the test on OVCAR-4; 12.8 µM (inactive) in the test with OVCAR-5; 8.22 µM (inactive) with PC-3. The GI50 with RXF 393 is 26.5 µM (inactive); in the test on SF-295, 3.64 µM (inactive); in the test on SF-539, 13.2 µM (inactive); in the test on SK-MEL-2, 17.3 µM (inactive); in the test on UACC-257, 97.3 µM (inactive); in the test with UO-31, 8.49 µM (inactive).
In the case of `O=C(N/N=C/c1ccc2c(c1)OCO2)Nc1ccccc1Cl`, the GI50 is 3.69 µM (inactive) in the test on 786-0; 8.07 µM (inactive) with EKVX; 0.361 µM (active) in the test on HCC 2998; 0.861 µM (active) in the test with HCT-116; 0.327 µM (active) in the test on K562; 0.171 µM (active) in the test with MDA-MB-435. Further, the GI50 in the test on MDA-N is 0.161 µM (active); with MOLT-4, 0.462 µM (active); in the test on OVCAR-3, 0.391 µM (active); with OVCAR-4 it was 10 µM (inactive); in the test on OVCAR-5 it was 8 µM (inactive); in the test with PC-3, 2.21 µM (inactive). Also, the GI50 in the test with RXF 393 was 1.57 µM (inactive); in the test with SF-295, 0.47 µM (active); in the test on SF-539 it was 0.918 µM (active); in the test on SK-MEL-2 it was 0.556 µM (active); in the test on UACC-257, 2.23 µM (inactive); in the test with UACC-62, 0.762 µM (active). The GI50 in the test on UO-31 was 4.25 µM (inactive).
Regarding `O=c1cc(N2CCOCC2)oc2c(-c3ccccc3)cccc12` [LY-294002], the GI50 in the test on 786-0 is 9.68 µM (inactive); in the test on EKVX, 3.49 µM (inactive); in the test with HCT-116, 12.6 µM (inactive); with K562, 14.2 µM (inactive); in the test with MDA-MB-435, 7.8 µM (inactive); in the test on MDA-N, 11.8 µM (inactive). In addition, the GI50 in the test with MOLT-4 is 11.4 µM (inactive); with OVCAR-3, 7.16 µM (inactive); in the test on OVCAR-4 it was 2.7 µM (inactive); in the test with OVCAR-5, 12.1 µM (inactive); with PC-3, 2.34 µM (inactive); with RXF 393, 2.77 µM (inactive). The GI50 with SF-295 is 6.53 µM (inactive); in the test on SF-539, 7.98 µM (inactive); in the test on SK-MEL-2, 9.93 µM (inactive); in the test with SNB-75, 1.11 µM (active); in the test on UACC-257, 14.5 µM (inactive); with UACC-62 it was 3.79 µM (inactive). Further, in the test on UO-31, the GI50 was 15.8 µM (inactive).
